These results are taken from ChEMBL document CHEMBL3045663, “Synthesis and Activity of Novel Acaricidal/Insecticidal 2, 4-Diphenyl-1, 3-oxazolines” (J Pestic Sci, 2002).

Holding throughout (assay type): functional
In one assay the test system is Myzus persicae. Kind of assay: Insecticidal activity against Myzus persicae (green peach aphid) in compound treated radish leaf assessed as mortality at 500 ppm.
A further assay concerns Tetranychus urticae. As to the kind of experiment: Acaricidal activity against Tetranychus urticae (two-spotted spider mite) in compound treated kidney bean leaf assessed as larvicidal activity.
The next assay has as its system Plutella xylostella. Kind of assay: Insecticidal activity against Plutella xylostella (diamondback moth) in compound treated radish leaf assessed as mortality at 500 ppm.
The next assay deals with Nephotettix cincticeps. Kind of assay: Insecticidal activity against Nephotettix cincticeps (green rice leafhopper) in compound treated rice seedlings assessed as mortality at 500 ppm.

Converted amounts (≈) assume the structure as drawn.

Take `CCCCCc1ccc(C2COC(c3c(F)cccc3F)=N2)c(OCC)c1` (stereo not drawn): the mortality (in general, the percentage killed) at 500 ppm was 85% in the assay with Myzus persicae, 35% in the assay with Plutella xylostella and 100% with Nephotettix cincticeps. Besides, in the assay with Tetranychus urticae, the LC50 (in general, the concentration that kills 50% of the test population) was less than 0.001 mg/L.
On to `Cc1cc(Cl)ccc1C1COC(c2c(F)cccc2F)=N1` (stereo not drawn), for which the mortality at 500 ppm with Myzus persicae was found to be 100%; in the assay on Plutella xylostella, 10%; in the assay with Nephotettix cincticeps it was 35%. The 50% lethal concentration (LC50) with Tetranychus urticae worked out at 0.1 mg/L (≈ 0.325 µM).
For `Fc1ccc(C2COC(c3c(F)cccc3F)=N2)cc1F` (stereo not drawn), in that order: 0%, 0%, 0% and 0.1 mg/L (≈ 0.339 µM).
Turning to `CSc1ccc(C2COC(c3c(F)cccc3F)=N2)cc1` (stereo not drawn), the mortality at 500 ppm in the assay on Myzus persicae was 100%; in the assay with Plutella xylostella it was 0%; in the assay with Nephotettix cincticeps it was 0%. In addition, the median lethal concentration (LC50) with Tetranychus urticae worked out at 0.1 mg/L (≈ 0.327 µM).
Take `Fc1cccc(F)c1C1=NC(c2ccc(Br)cc2)CO1` (stereo not drawn): the mortality at 500 ppm stood at 100% with Myzus persicae, 35% in the assay on Plutella xylostella and 10% with Nephotettix cincticeps. In addition, the 50% lethal concentration (LC50) in the assay with Tetranychus urticae was 0.001 mg/L (≈ 0.00296 µM).
As to `CC(C)Cc1ccc(C2COC(c3c(F)cccc3F)=N2)c(Cl)c1` (stereo not drawn), the mortality at 500 ppm turned out to be 100% in the assay with Myzus persicae, 100% in the assay with Plutella xylostella and 60% with Nephotettix cincticeps. Besides, the LC50 in the assay on Tetranychus urticae was less than 0.001 mg/L.
Regarding `CCCCCCCCc1ccc(C2COC(c3c(F)cccc3F)=N2)c(C)c1` (stereo not drawn), the mortality at 500 ppm in the assay on Myzus persicae, in the assay with Plutella xylostella and in the assay with Nephotettix cincticeps was 100% throughout. In addition, the 50% lethal concentration (LC50) in the assay on Tetranychus urticae was less than 0.001 mg/L.
In the case of `CCCCCCCCCCc1ccc(C2COC(c3c(F)cccc3F)=N2)cc1` (stereo not drawn), the values for the mortality at 500 ppm in the assay on Myzus persicae, with Plutella xylostella and in the assay on Nephotettix cincticeps were 85%, 100% and 0%, respectively. The LC50 with Tetranychus urticae is less than 0.001 mg/L.
For `CCOc1ccc(C2COC(c3c(F)cccc3F)=N2)cc1` (stereo not drawn), in that order: 100%, 35%, 0% and 0.001 mg/L (≈ 0.0033 µM).
Taken in the same sequence, the figures for `CCCCCCCCCSc1ccc(C2COC(c3c(F)cccc3F)=N2)cc1` (stereo not drawn) were 60%, 85%, 0% and 0.01 mg/L (≈ 0.0239 µM).
For `CCc1ccc(C2COC(c3c(F)cccc3F)=N2)c(F)c1` (stereo not drawn), in that order: 0%, 0%, 0% and 0.1 mg/L (≈ 0.328 µM).
On to `CCCCCCCCc1ccc(C2COC(c3c(F)cccc3F)=N2)c(Cl)c1` (stereo not drawn), for which the mortality at 500 ppm in the assay with Myzus persicae was 100%; in the assay on Plutella xylostella it was 85%; in the assay with Nephotettix cincticeps it was 0%. In addition, the 50% lethal concentration (LC50) with Tetranychus urticae was less than 0.001 mg/L.
For the compound `CCCCCCCCCCOc1ccc(C2COC(c3c(F)cccc3F)=N2)cc1` (stereo not drawn), the mortality at 500 ppm in the assay on Myzus persicae came to 100%; in the assay on Plutella xylostella, 100%; with Nephotettix cincticeps, 10%. Besides, the 50% lethal concentration (LC50) in the assay on Tetranychus urticae is less than 0.001 mg/L.
Regarding `CCCCCCc1ccc(C2COC(c3c(F)cccc3F)=N2)cc1` (stereo not drawn), the mortality at 500 ppm in the assay with Myzus persicae was 100%; in the assay on Plutella xylostella, 10%; in the assay on Nephotettix cincticeps, 0%. The LC50 in the assay with Tetranychus urticae was less than 0.001 mg/L.
Taken in the same sequence, the figures for `Oc1ccc(C2COC(c3c(F)cccc3F)=N2)cc1` (stereo not drawn) were 0%, 10%, 60% and 10 mg/L (≈ 36.3 µM).
Consider `CCCCCCCCc1ccc(C2COC(c3c(F)cccc3F)=N2)c(F)c1` (stereo not drawn), for which the mortality at 500 ppm is 100% in the assay on Myzus persicae, 100% with Plutella xylostella and 0% in the assay with Nephotettix cincticeps. In addition, the median lethal concentration (LC50) with Tetranychus urticae is less than 0.001 mg/L.
As to `CCCCCCCCCCCCCCCc1ccc(C2COC(c3c(F)cccc3F)=N2)cc1` (stereo not drawn), the mortality at 500 ppm is 0% in the assay with Myzus persicae, 85% in the assay on Plutella xylostella and 0% in the assay on Nephotettix cincticeps. In the assay on Tetranychus urticae, the LC50 is 0.001 mg/L (≈ 0.00213 µM).
In the case of `CC(C)(C)c1ccc(C2COC(c3c(F)cccc3F)=N2)cc1` (stereo not drawn), the values for the mortality at 500 ppm with Myzus persicae, in the assay on Plutella xylostella and in the assay with Nephotettix cincticeps were 100%, 0% and 60%, respectively. Moreover, in the assay on Tetranychus urticae, the LC50 is less than 0.001 mg/L.
Taken in the same sequence, the figures for `CCCOc1cc(C(C)C)ccc1C1COC(c2c(F)cccc2F)=N1` (stereo not drawn) were 100%, 85%, 100% and less than 0.001 mg/L.
Taken in the same sequence, the figures for `CCCCCCCCCCCCCOc1ccc(C2COC(c3c(F)cccc3F)=N2)cc1` (stereo not drawn) were 85%, 35%, 0% and 0.001 mg/L (≈ 0.00219 µM).
Taken in the same sequence, the figures for `Fc1cccc(C2COC(c3c(F)cccc3F)=N2)c1` (stereo not drawn) were 0%, 0%, 60% and 1 mg/L (≈ 3.61 µM).
For the compound `CCCCCCc1ccc(C2COC(c3c(F)cccc3F)=N2)cc1Cl` (stereo not drawn), the mortality at 500 ppm in the assay on Myzus persicae, in the assay on Plutella xylostella and with Nephotettix cincticeps was 0% throughout. For the same compound, the LC50 in the assay with Tetranychus urticae was 0.1 mg/L (≈ 0.265 µM).
Take `CCCCCCCCOc1ccc(C2COC(c3c(F)cccc3F)=N2)cc1` (stereo not drawn): the mortality at 500 ppm in the assay with Myzus persicae came out at 85%; with Plutella xylostella, 60%; with Nephotettix cincticeps, 0%. The LC50 in the assay on Tetranychus urticae was less than 0.001 mg/L.
For the compound `CCCCCc1ccc(C2COC(c3c(F)cccc3F)=N2)c(OCCC)c1` (stereo not drawn), the mortality at 500 ppm in the assay with Myzus persicae came out at 85%; in the assay on Plutella xylostella, 85%; in the assay on Nephotettix cincticeps, 60%. The median lethal concentration (LC50) with Tetranychus urticae stood at 0.001 mg/L (≈ 0.00258 µM).
With `CN(C)c1ccc(C2COC(c3c(F)cccc3F)=N2)cc1` (stereo not drawn), the figures for the mortality at 500 ppm with Myzus persicae, in the assay on Plutella xylostella and in the assay on Nephotettix cincticeps were 85%, 0% and 0%, respectively. In the assay on Tetranychus urticae, the 50% lethal concentration (LC50) came out at 10 mg/L (≈ 33.1 µM).
On to `CCc1cccc(C2COC(c3c(F)cccc3F)=N2)c1` (stereo not drawn), for which the values for the mortality at 500 ppm with Myzus persicae, in the assay on Plutella xylostella and in the assay on Nephotettix cincticeps were 0%, 0% and 60%, respectively. The LC50 with Tetranychus urticae worked out at 10 mg/L (≈ 34.8 µM).
Turning to `Fc1ccccc1C1COC(c2c(F)cccc2F)=N1` (stereo not drawn), the mortality at 500 ppm is 60% in the assay with Myzus persicae, 10% with Plutella xylostella and 35% in the assay on Nephotettix cincticeps. Further, in the assay with Tetranychus urticae, the median lethal concentration (LC50) is 1 mg/L (≈ 3.61 µM).
For `CCOc1cc(C(C)(C)C)ccc1C1COC(c2c(F)cccc2F)=N1` (stereo not drawn) [ETOXAZOLE], in that order: 100%, 100%, 100% and 0.001 mg/L (≈ 0.00278 µM).
For `Cc1ccccc1C1COC(c2c(F)cccc2F)=N1` (stereo not drawn), the mortality at 500 ppm amounted to 0% with Myzus persicae, 0% with Plutella xylostella and 10% in the assay on Nephotettix cincticeps. Moreover, in the assay on Tetranychus urticae, the LC50 was 10 mg/L (≈ 36.6 µM).
For the compound `CCCCCCCCCCCCCCOc1ccc(C2COC(c3c(F)cccc3F)=N2)cc1` (stereo not drawn), the mortality at 500 ppm in the assay with Myzus persicae came out at 60%; with Plutella xylostella, 85%; in the assay on Nephotettix cincticeps it was 10%. In addition, the LC50 in the assay with Tetranychus urticae was found to be 0.01 mg/L (≈ 0.0212 µM).
`Fc1ccc(C2COC(c3c(F)cccc3F)=N2)c(F)c1` (stereo not drawn): the mortality at 500 ppm in the assay on Myzus persicae was found to be 100%; with Plutella xylostella, 85%; in the assay with Nephotettix cincticeps, 35%. Besides, in the assay with Tetranychus urticae, the 50% lethal concentration (LC50) is 0.01 mg/L (≈ 0.0339 µM).
With `CCCCCCCCCCc1ccc(C2COC(c3c(F)cccc3F)=N2)c(OC)c1` (stereo not drawn), the mortality at 500 ppm in the assay with Myzus persicae turned out to be 100%; with Plutella xylostella, 85%; in the assay on Nephotettix cincticeps it was 10%. Moreover, in the assay with Tetranychus urticae, the median lethal concentration (LC50) amounted to 0.01 mg/L (≈ 0.0233 µM).
